# Assay results reported in PubChem BioAssay (NCI).
#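 Cells were grown in 96-well plates and exposed to each compound for 48 hours at five concentrations; endpoints were interpolated linearly between bracketing concentrations, or set to the highest concentration if not reached. Definition used: TGI = concentration required for complete inhibition of growth.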
# How the values were obtained:
# Assay in all cases: NCI tumour cell line growth inhibition, 48 h
# CCRF-CEM leukemia = system: CCRF-CEM leukemia
# ACHN renal = system: ACHN renal
# HL-60(TB) leukemia = system: HL-60(TB) leukemia
# K-562 leukemia = system: K-562 leukemia
# A549 NSCLC = system: A549 NSCLC
# BT-549 breast = system: BT-549 breast
# SK-MEL-28 melanoma = system: SK-MEL-28 melanoma
# OVCAR-5 ovarian = system: OVCAR-5 ovarian
# HT29 colon = system: HT29 colon
# NCI-H226 lung = system: NCI-H226 lung
# MDA-N = system: MDA-N
SMILES,TGI (CCRF-CEM leukemia),TGI (ACHN renal),TGI (HL-60(TB) leukemia),TGI (K-562 leukemia),TGI (A549 NSCLC),TGI (BT-549 breast),TGI (SK-MEL-28 melanoma),TGI (OVCAR-5 ovarian),TGI (HT29 colon),TGI (NCI-H226 lung),TGI (MDA-N)
Cc1cc(S(=O)(=O)Nc2nc(N)n(-c3ccccc3)n2)c(S)cc1Cl,> 100 µM,> 100 µM,> 100 µM,> 100 µM,> 100 µM,> 100 µM,> 100 µM,> 100 µM,> 100 µM,> 100 µM,> 100 µM
C/C(=N\NC(=S)N/N=C(\C)c1ccccn1)c1ccccn1,1.7 µM,5.7 µM,> 100 µM,7.92 µM,> 100 µM,> 100 µM,> 100 µM,> 100 µM,> 100 µM,3.78 µM,> 100 µM
CCOC(=O)C(NC(=O)Nc1ccccc1)(Nc1cccc(Cl)c1)C(F)(F)F (centres undefined),> 100 µM,> 100 µM,> 100 µM,> 100 µM,> 100 µM,> 100 µM,> 100 µM,> 100 µM,> 100 µM,> 100 µM,> 100 µM
Clc1ccc2nc3c(c(-c4ccccc4)nn3-c3ccccc3)c(-c3ccccc3)c2c1,> 100 µM,> 100 µM,> 100 µM,> 100 µM,> 100 µM,> 100 µM,> 100 µM,> 100 µM,> 100 µM,> 100 µM,> 100 µM
CC(CCC(=O)O)(c1cc(Br)c(O)c(Br)c1)c1cc(Br)c(O)c(Br)c1,> 100 µM,> 100 µM,> 100 µM,> 100 µM,> 100 µM,> 100 µM,> 100 µM,> 100 µM,> 100 µM,> 100 µM,> 100 µM
Cc1cc2nc(N)n[n+]([O-])c2cc1C,> 100 µM,> 100 µM,> 100 µM,> 100 µM,> 100 µM,> 100 µM,> 100 µM,> 100 µM,> 100 µM,> 100 µM,> 100 µM
COC(=O)[C@@]12CC3CN(Cc4c1[nH]c1ccccc41)C2CC3=O,> 100 µM,> 100 µM,> 100 µM,> 100 µM,> 100 µM,> 100 µM,> 100 µM,> 100 µM,> 100 µM,> 100 µM,> 100 µM
CC(C)=CCC[C@@H](C)c1c(O)c(O)c(C)c2nc3ccccc3nc12,0.8 µM,5.64 µM,2.98 µM,> 32.5 µM,9.15 µM,17.1 µM,23.8 µM,17.6 µM,17.5 µM,5.97 µM,15.9 µM
CCOC(=O)n1c2ccccc2c2c(O)c(OC)c3c(c21)C(=O)NC3=O,> 100 µM,> 100 µM,49.2 µM,> 100 µM,> 100 µM,> 100 µM,> 100 µM,> 100 µM,84.3 µM,76.3 µM,> 100 µM
O=C(O)C(C1NCCS1)N1Cc2ccccc2C1 (centres undefined),> 100 µM,> 100 µM,> 100 µM,> 100 µM,> 100 µM,> 100 µM,> 100 µM,> 100 µM,> 100 µM,> 100 µM,> 100 µM
CC1CCC(O)/C=C/C(=O)OC(C)C(O)/C=C/C(=O)O1 (centres undefined),> 79.9 µM,> 100 µM,> 79.5 µM,> 100 µM,> 100 µM,> 100 µM,> 100 µM,> 100 µM,> 100 µM,> 100 µM,> 100 µM
O=c1[nH]nc(Nc2ccccc2)c2nnn(Cc3ccccc3)c12,> 100 µM,> 100 µM,> 100 µM,> 100 µM,> 100 µM,> 100 µM,> 100 µM,> 100 µM,> 100 µM,> 100 µM,> 100 µM
COC(=O)/C=C1\C(=O)N(C(C)=O)c2ccccc21,10.1 µM,20.1 µM,5.61 µM,> 96.5 µM,> 57.6 µM,27.4 µM,32.7 µM,59.1 µM,20.6 µM,27.8 µM,25.2 µM
NC1=CN2c3ccccc3N(CC(=O)N3CCOCC3)C2C=C1 (centres undefined),> 100 µM,> 100 µM,> 100 µM,> 100 µM,> 100 µM,> 100 µM,> 100 µM,> 100 µM,> 100 µM,> 100 µM,> 100 µM
CN(CCN(C)Cc1ccc(Cl)c(Cl)c1)CCN1CCCC1,23.6 µM,> 100 µM,> 100 µM,32.2 µM,> 100 µM,> 100 µM,20.3 µM,> 100 µM,> 72 µM,94.9 µM,31.4 µM
Cc1cc([C@H](C#N)c2nc3ccccc3s2)nc(Cl)n1,> 100 µM,78.5 µM,> 100 µM,> 100 µM,> 100 µM,35.6 µM,39.1 µM,> 100 µM,21.4 µM,35.1 µM,> 100 µM
O=C(OCc1ccccc1[N+](=O)[O-])N1c2ccccc2[C@@]23O[C@]24CCC[C@H]3C#C/C=C\C#C[C@H]14,66.6 µM,> 100 µM,25.9 µM,> 100 µM,> 100 µM,> 100 µM,> 100 µM,> 100 µM,> 100 µM,> 100 µM,> 100 µM
c1ccc2c3c(c(N4CCNCC4)nc2c1)CCCC3,31.4 µM,27.6 µM,24.3 µM,> 100 µM,30.8 µM,26.9 µM,31.1 µM,26.9 µM,28.3 µM,29.6 µM,28.3 µM
CCOC(=O)Cn1c(=O)c2cc(C)cc3c(Cl)nc4c(OC)c(OC)cc1c4c32,> 100 µM,> 100 µM,> 100 µM,> 100 µM,> 100 µM,> 100 µM,> 100 µM,> 100 µM,> 100 µM,> 100 µM,> 100 µM
CCNc1nc2ccccc2nc1NCC,> 100 µM,> 100 µM,> 100 µM,> 100 µM,> 100 µM,> 100 µM,> 100 µM,> 100 µM,> 100 µM,> 100 µM,> 100 µM
Nc1c2c(nc3ccccc13)-c1ccccc1CCC2,49.1 µM,26.5 µM,26.4 µM,33.8 µM,29.9 µM,44.4 µM,27.3 µM,30 µM,25.9 µM,28.9 µM,25.9 µM
O=C1OS2(OC(=O)c3cccc4cccc2c34)c2ccccc21 (centres undefined),> 100 µM,> 100 µM,> 100 µM,> 100 µM,> 100 µM,> 100 µM,> 100 µM,> 100 µM,> 100 µM,> 100 µM,> 100 µM
O=C1N2CCN=C2c2ccccc2C1(O)c1ccccc1 (centres undefined),> 100 µM,> 100 µM,> 100 µM,> 100 µM,> 100 µM,> 100 µM,> 100 µM,> 100 µM,> 100 µM,> 100 µM,> 100 µM
C/C(=C/CC[C@](C)(OC1OC(CO)C(O)C(O)C1OC1OC(C)C(O)C(O)C1O)[C@H]1CC[C@]2(C)[C@@H]1CC[C@@H]1[C@@]3(C)CC[C@H](O)C(C)(C)[C@@H]3C[C@H](O)[C@]12C)CO (some centres undefined),> 100 µM,> 100 µM,> 100 µM,> 100 µM,> 100 µM,> 100 µM,> 100 µM,> 100 µM,> 100 µM,> 100 µM,> 100 µM
